{
  "source": "paper PMC9598925",
  "about": "“Synthetic Amphipathic β-Sheet Temporin-Derived Peptide with Dual Antibacterial and Anti-Inflammatory Activities” (Antibiotics, 2022)",
  "origin": "cited, not measured here",
  "key": {"[1]": {"conditions": "LUVs mimicking Gram-positive and Gram-negative membranes; cited from earlier work", "description": "The molecular conformation of [Nle^1, DLeu^9, DLys^10]TL was investigated by circular dichroism (CD) spectroscopy both in LUVs made of DOPG/CL and DOPG/DOPE/CL (Figure 3, panel A). […] In contrast, the introduction of Nle induced changes in molecular conformation, determining the formation of β-aggregates."}, "[2]": {"conditions": "10 μM peptide; LUVs DOPG/CL, ANTS/DPX; cited from earlier work", "experimental": "In this study, we evaluated the membranolytic activity of analogue [Nle^1, DLeu^9, DLys^10]TL in presence of LUVs mimicking Gram-positive and Gram-negative membranes by using ANTS/DPX leakage assay. […] Indeed, after the treatment with 10 μM of [Nle^1, DLeu^9, DLys^10]TL, we observed ~60% of LUVs leakage in com ..."}, "[3]": {"conditions": "LUVs DOPG/CL, cited from earlier work", "experimental": "LUVs composed of DOPG/CL (58/42 ratio in moles) and DOPG/DOPE/CL ([…] ratio in moles) were used to mimic Gram-positive and Gram-negative cell membranes, respectively. LUVs were titrated with different peptide concentrations of 5, 10, 15, […], 30, and 50 μM. […] In contrast, the peptide [DLeu^9, DLys^10]TL progressively oligomerized in LUVs (DOPG/CL) as described in Bellavita et al.; in fact, it was partially aggr ..."}, "[4]": {"tested_on": "zymosan-induced peritonitis", "conditions": "cited from earlier work"}, "[5]": {"conditions": "range of concentrations 1 μM–200 μM; cited from earlier work", "description": "The impact of Nle on the aggregation propensity was studied in solution and in presence of large unilamellar vesicles (LUVs) mimicking Gram-positive and Gram-negative membranes. The aggregation in aqueous solution was monitored using Nile Red (NR) as a fluorescent probe. […] The introduction of the Nle residue conferred to peptide [Nle^1, DLeu^9, DLys^10]TL a low propensity to aggregate in aqueous solution as shown ..."}, "S. aureus ATCC 25923": {"tested_on": "S. aureus ATCC 25923", "conditions": "lead peptide, previous works ref 27, 41; cited from earlier work", "description": "(§1) Table 2 MICs values of peptide [Nle^1, DLeu^9, DLys^10]TL in comparison with [DLeu^9, DLys^10]TL on selected Gram-positive and Gram-negative strains. | column: MIC Values (μM) / [DLeu^9, DLys^10]TL *"}, "B. megaterium Bm11": {"tested_on": "B. megaterium Bm11", "conditions": "lead peptide, previous works ref 27, 41; cited from earlier work", "description": "as §1"}, "P. aeruginosa ATCC 27853": {"tested_on": "P. aeruginosa ATCC 27853", "conditions": "lead peptide, previous works ref 27, 41; cited from earlier work", "description": "as §1"}, "[6]": {"tested_on": "S. epidermidis ATCC 12228", "conditions": "lead peptide, previous works ref 27, 41; cited from earlier work", "description": "as §1"}, "A. baumannii ATCC 19606": {"tested_on": "A. baumannii ATCC 19606", "conditions": "lead peptide, previous works ref 27, 41; cited from earlier work", "description": "as §1"}, "[7]": {"tested_on": "K. pneumoniae ATCC BAA-1705", "conditions": "lead peptide, previous works ref 27, 41; cited from earlier work", "description": "as §1"}, "E. coli ATCC 25922": {"tested_on": "E. coli ATCC 25922", "conditions": "lead peptide, previous works ref 27, 41; cited from earlier work", "description": "as §1"}, "[8]": {"tested_on": "J774A.1 murine macrophage cells", "conditions": "highest concentration of 25 μM; previous work of the authors; cited from earlier work"}, "HaCaT cells": {"tested_on": "HaCaT cells", "conditions": "highest concentration of 25 μM; previous work of the authors; cited from earlier work"}},
  "note": "Read-outs that look alike come from different tables or passages of the source.",
  "data": [
    {"substance": "FVPWFSKFlkRIL [[DLeu^9, DLys^10]TL]", "values": [
      {"measurement": "molecular conformation (CD)", "setting": "[1]", "result": "helical aggregates"},
      {"measurement": "LUVs leakage", "setting": "[2]", "result": "~ 23%"},
      {"measurement": "aggregation (ThT)", "setting": "[3]; 20 μM peptide", "result": "~ 56%"},
      {"measurement": "aggregation (ThT)", "setting": "[3]; 50 μM peptide", "result": "completely aggregated"},
      {"measurement": "anti-inflammatory activity in vivo", "setting": "[4]", "result": "significant anti-inflammatory activity"},
      {"measurement": "level of pro-inflammatory cytokines IL-6, MCP-1 and TNF-α", "setting": "[4]", "result": "reduced the level of pro-inflammatory cytokines"},
      {"measurement": "aggregation in solution", "setting": "[5]", "result": "unable to aggregate in solution"},
      {"measurement": "MIC", "setting": "S. aureus ATCC 25923", "result": 6.25, "unit": "µM"},
      {"measurement": "MIC", "setting": "B. megaterium Bm11", "result": 3.12, "unit": "µM"},
      {"measurement": "MIC", "setting": "P. aeruginosa ATCC 27853", "result": 12.5, "unit": "µM"},
      {"measurement": "MIC", "setting": "[6]", "result": 3.12, "unit": "µM"},
      {"measurement": "MIC", "setting": "A. baumannii ATCC 19606", "result": 6.25, "unit": "µM"},
      {"measurement": "MIC", "setting": "[7]", "result": 12.5, "unit": "µM"},
      {"measurement": "MIC", "setting": "E. coli ATCC 25922", "result": 12.5, "unit": "µM"},
      {"measurement": "cytotoxicity on murine macrophages", "setting": "[8]", "result": "not cytotoxic"},
      {"measurement": "cytotoxicity on human keratinocytes", "setting": "HaCaT cells", "result": "not cytotoxic"}
    ]}
  ]
}
